From PMC9298352, “Design, Synthesis and Structural Analysis of Glucocerebrosidase Imaging Agents” (Chemistry (Weinheim an Der Bergstrasse, Germany), 2021)
Where a chain is given by its changes, count along the chain named. Read-outs that look alike come from different tables or passages of the source.

Experiments:
[1] = biological target: T1, overexpressed GBA2 in HEK293T cells (Homo sapiens, UniProt Q9HCG7); assay: In situ labeling of GBA2 in living HEK293T cells (gel-based ABPP); format: cell-based; details: HEK293T cells overexpressing GBA2, 1–1000 nM, 24 h, 37 °C
T1 construct: expressed in transfected cells; host or cells: HEK293T
T1 sequence (Q9HCG7 1-927): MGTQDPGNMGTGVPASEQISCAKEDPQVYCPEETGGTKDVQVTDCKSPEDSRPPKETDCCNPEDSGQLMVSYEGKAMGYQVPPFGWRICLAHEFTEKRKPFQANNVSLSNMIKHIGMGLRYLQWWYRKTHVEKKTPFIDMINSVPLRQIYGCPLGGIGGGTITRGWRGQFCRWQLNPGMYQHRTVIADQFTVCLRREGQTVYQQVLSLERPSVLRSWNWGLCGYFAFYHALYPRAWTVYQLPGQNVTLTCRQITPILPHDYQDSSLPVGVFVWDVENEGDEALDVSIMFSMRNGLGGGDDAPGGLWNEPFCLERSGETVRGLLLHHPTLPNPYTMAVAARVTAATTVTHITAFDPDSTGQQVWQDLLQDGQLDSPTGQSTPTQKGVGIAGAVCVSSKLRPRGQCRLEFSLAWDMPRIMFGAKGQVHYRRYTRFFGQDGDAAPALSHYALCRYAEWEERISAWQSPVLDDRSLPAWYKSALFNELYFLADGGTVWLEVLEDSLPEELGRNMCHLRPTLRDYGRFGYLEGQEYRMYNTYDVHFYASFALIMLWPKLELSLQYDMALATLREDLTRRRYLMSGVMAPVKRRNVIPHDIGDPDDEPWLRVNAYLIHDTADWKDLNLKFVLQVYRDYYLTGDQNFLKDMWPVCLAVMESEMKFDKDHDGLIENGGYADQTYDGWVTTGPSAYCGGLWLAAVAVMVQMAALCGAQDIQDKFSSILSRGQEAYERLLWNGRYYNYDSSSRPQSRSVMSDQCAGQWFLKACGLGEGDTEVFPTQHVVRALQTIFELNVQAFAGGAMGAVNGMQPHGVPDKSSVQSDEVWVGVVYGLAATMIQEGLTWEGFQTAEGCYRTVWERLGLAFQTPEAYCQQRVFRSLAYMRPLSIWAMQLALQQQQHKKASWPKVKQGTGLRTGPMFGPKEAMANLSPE
Procedure: (§1) HEK293T cells containing endogenous GBA and overexpressed GBA2 were treated with the ABPs at different concentrations (1–1000 nM) for 24 hr. Cells were then washed, lysed and the fluorescence was visualized by gel‐based ABPP (Figure 8).
(§2) CBB, Coomassie Brilliant Blue staining (bottom panel).
(§3) Labelling of HEK293T cells, containing endogenous GBA and overexpressed GBA2, with ABPs 6, 8 and 9 was conducted based on previously described methods[69] as outlined in the Supporting Information (page 7).
(§4) Cy5 tetrazine 20 (2.83 mg, 4.3 µmol) was added to a solution of norbornene 19 (0.94 mg, 2.38 µmol) in MeOH (4 mL). After stirring overnight at rt, the reaction mixture was concentrated in vacuo and purified by HPLC under neutral conditions (A: 50 mM NH4HCO3 in H2O; B: MeCN; 49% → 52%, A in […]
(§5) Biochemical Methods: General Experimental Details
(§6) Recombinant human GBA (rhGBA, imiglucerase, Cerezyme®) and GAA (rhGAA, alglucosidase alfa, Myozyme) were obtained from Sanofi Genzyme (Cambridge, MA, USA). HEK293T (CRL-3216) cell lines were purchased from ATCC (Manassas, VA, USA). Cell lines were […]
(§7) (1 picture or pasted object on this page, not shown here)

[2] = biological target: T2, recombinant human GBA (rhGBA, Imiglucerase) (Homo sapiens, UniProt P04062, R534H); assay: In vitro apparent IC50, fluorogenic substrate assay on rhGBA; format: biochemical
T2 construct: purchased Sanofi Genzyme (Cambridge, MA, USA)
T2 sequence (P04062 40-536 R534H): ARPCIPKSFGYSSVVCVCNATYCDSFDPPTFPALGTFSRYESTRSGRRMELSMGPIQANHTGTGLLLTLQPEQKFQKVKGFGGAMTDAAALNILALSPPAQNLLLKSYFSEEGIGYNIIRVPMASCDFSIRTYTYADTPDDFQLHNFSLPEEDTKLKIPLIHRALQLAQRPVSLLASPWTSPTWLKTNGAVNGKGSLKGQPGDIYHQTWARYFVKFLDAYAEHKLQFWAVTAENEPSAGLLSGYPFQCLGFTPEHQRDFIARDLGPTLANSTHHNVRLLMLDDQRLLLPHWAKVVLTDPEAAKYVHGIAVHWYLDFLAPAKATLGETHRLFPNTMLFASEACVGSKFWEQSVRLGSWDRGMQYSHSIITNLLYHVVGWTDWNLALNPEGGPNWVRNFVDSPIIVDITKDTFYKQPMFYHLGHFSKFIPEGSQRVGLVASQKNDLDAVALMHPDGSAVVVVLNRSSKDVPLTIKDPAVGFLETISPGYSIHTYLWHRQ
Procedure: All assays were performed in duplicate sets, each with 3 technical replicates at each inhibitor concentration. DMSO concentration was kept at 0.5 %–1 % (v/v) in all assays during incubation with compounds. In vitro apparent IC50 values were calculated by fitting data with [inhibitor] vs. response‐various slope (four parameters) function using Graphpad Prism 7.0 software. Average values and standard deviations were calculated from the two sets.

[3] = biological target: T3, endogenous GBA in HEK293T cells (Homo sapiens, UniProt P04062); assay: In situ labeling of GBA in living HEK293T cells (gel-based ABPP); format: cell-based; details: 1–1000 nM, 24 h, 37 °C
T3 construct: endogenous in cells; host or cells: HEK293T
T3 sequence (P04062 40-536): T2 sequence (P04062 40-536 R534H) with H495R
Procedure: as §1, §2, §3, §4, §5, §6, §7

`CCCCCCCCN1[C@@H]2[C@H](Cn3cc(CNC(=O)CCCCC[N+]4=C(/C=C/C=C/C=C5/N(C)c6ccccc6C5(C)C)C(C)(C)c5ccccc54)nn3)[C@@H](O)[C@H](O)[C@@H](O)[C@@H]21` (stereo partly shown) [ABP 6] was tested, and the “ABP concentration at which in situ labeling of GBA2 is observed” value [1] was 100 nM, the IC50 ([2]; 3 hr pre-incubation, read-out: apparent IC50 value, GBA) was 0.053 µM and the IC50 ([2]; apparent IC50, 3 h pre-incubation, 4-methylumbelliferyl-β-glucoside substrate, ± SD from technical duplicates, read-out: In vitro rhGBA IC50) was 0.0531 ± 0.00265 µM. The “ABP concentration at which in situ labeling of GBA is observed” value [3] was 10 nM.
